Experiments:
[1] = target: T1, α6β2δ recombinant GABAA receptor (Rattus norvegicus, UniProt P30191+P63138); test: [^3H]muscimol binding kinetics, recombinant α6β2δ in HEK293 membranes
T1 construct: expressed in transfected cells; host or cells: HEK293 (ATCC CRL-1573), pRK5 plasmids, membranes
Text: (§1) Human embryonic kidney (HEK) 293 cells (ATCC Cat# CRL‐1573; RRID: CVCL_0045; a commonly misidentified cell line by ICLAC; last authenticated by STR DNA profiling in December 2018) were transfected with rat cDNAs (α1, L08490; α6, L08495; β2, X15467; β3, X15468; γ2S, L08497; δ, L08496) in pRK5 plasmids under the control of the cytomegalovirus promoter (Uusi‐Oukari et al. 2000), using the calcium phosphate precipitation method essentially as described (Lüddens and Korpi 1997). The plasmids were used in 1 : 1 and 1 : 1 : 1 ratios for transfections containing 2 [(α1 or α6) + (β2 or β3)] or 3 [(α1 or α6) + (β2 or β3) + (γ2S or δ)] different subunits, respectively (5 μg of each plasmid DNA for a 10 cm plate). Mock transfection was done using 5 μg pRK5 plasmid backbone. The cells were harvested 48 h after transfection. Culture medium was removed and the cells were detached from the plates by pipetting in ice‐cold assay buffer containing 2 mM EDTA. The cells were homogenized (Ultra Turrax, 20 s at 9500 rpm), the homogenates centrifuged at 20 000 g for 10 min at +4°C, and washed once with the same buffer. The homogenates were finally suspended in assay buffer (1 mL/plate) and either used directly to binding assays or stored frozen at −70°C.
(§2) The binding of [^3H]muscimol (5 nM) was measured in assay buffer at 22°C in a total volume of 300 μL. Triplicate technical replicates of mouse forebrain (190–215 μg protein), cerebellar (180–210 μg protein) or HEK cell (92–132 μg protein) membranes for each time point were incubated with shaking for various times (15 s–15 min) to measure association of the binding. […] The incubation was terminated by filtration of the samples with a Brandel Cell Harvester (model M‐24, Gaithersburg, MD, USA) onto Whatman GF/B filters (Whatman International Ltd., Maidstone, UK). The samples were rinsed twice with 4–5 mL of ice‐cold assay buffer. Filtration and rinsing steps took a total time of ~15 s. Air‐dried filters were immersed in 3 mL of Optiphase HiSafe 3 scintillation fluid (Wallac, Turku, Finland) and radioactivity determined in a Wallac model 1410 liquid scintillation counter (Wallac, Turku, Finland). The maximal binding disintegrations per minute (DPM) values (at 15 min in association) for recombinant studies with 5 nM [^3H]muscimol were between 700 and 2500 DPMs of specific binding (background subtracted). In native membranes, the maximal DPM values were between 2500 and 3000 for WTs and 1300–1500 for δKOs.
(§3) The tubes were mixed and incubations at 22°C were terminated at various time points (30 s – 30 min) as described above. Dissociation of [^3H]muscimol from recombinant receptors in HEK cell membranes was also measured at 0–4°C (on ice) to evaluate how fast [^3H]muscimol dissociates from receptors while washing the filter with ice‐cold assay buffer during filtration.

[2] = target: T2, α6β2 recombinant GABAA receptor (Rattus norvegicus, UniProt P30191+P63138); test: [^3H]muscimol binding kinetics, recombinant α6β2 in HEK293 membranes; details: room temperature (22°C)
T2 construct: expressed in transfected cells; host or cells: HEK293 (ATCC CRL-1573), pRK5 plasmids, membranes
Text: (§4) Human embryonic kidney (HEK) 293 cells (ATCC Cat# CRL‐1573; RRID: CVCL_0045; a commonly misidentified cell line by ICLAC; last authenticated by STR DNA profiling in December 2018) were transfected with rat cDNAs (α1, L08490; α6, L08495; β2, X15467; β3, X15468; γ2S, L08497; δ, L08496) in pRK5 plasmids under the control of the cytomegalovirus promoter (Uusi‐Oukari et al. 2000), using the calcium phosphate precipitation method essentially as described (Lüddens and Korpi 1997). The plasmids were used in 1 : 1 and 1 : 1 : 1 ratios for transfections containing 2 [(α1 or α6) + (β2 or β3)] or 3 [(α1 or α6) + (β2 or β3) + (γ2S or δ)] different subunits, respectively (5 μg of each plasmid DNA for a 10 cm plate). […]
The binding of [^3H]muscimol (5 nM) was measured in assay buffer at 22°C in a total volume of 300 μL. […] Air‐dried filters were immersed in 3 mL of Optiphase HiSafe 3 scintillation fluid (Wallac, Turku, Finland) and radioactivity determined in a Wallac model 1410 liquid scintillation counter (Wallac, Turku, Finland). […]
as §3

[3] = target: cerebellar membranes of WT mice; test: [^3H]muscimol binding kinetics, WT cerebellar membranes; design: species or system mouse
Description: WT and δKO forebrain and cerebellar membranes were prepared using a modification of the method of Squires and Saederup (2000) essentially as described by Uusi‐Oukari et al. (2014). […] forebrain along with midbrain region was homogenized into 10 mM Tris‐HCl, pH 8.0 buffer containing 2 mM EDTA, using an Ultra‐Turrax T25 (Janke & Kunkel IKA labortechnik) for 20 s at 9500 rpm. The homogenates were centrifuged at 20 000 g for 10 min at +4°C and the resulting pellets were washed three times by resuspension and re‐centrifugation with 10 mM Tris‐HCl, pH 8.5 buffer containing 0.2 M NaCl, and 5 mM EDTA. The resulting pellets were then suspended in ice‐cold H2O and centrifuged. The pellets were again washed three times with Tris, pH 8.5/NaCl/EDTA as described above. The resulting pellets were finally suspended in assay buffer consisting of 50 mM Tris‐base, pH adjusted to 7.4 with citric acid, and frozen at −70°C. Before a binding experiment, the suspension was thawed, centrifuged, and suspended in assay buffer.
The binding of [^3H]muscimol (5 nM) was measured in assay buffer at 22°C in a total volume of 300 μL. Triplicate technical replicates of mouse forebrain (190–215 μg protein), cerebellar (180–210 μg protein) or HEK cell (92–132 μg protein) membranes for each time point were incubated with shaking for various times (15 s–15 min) to measure association of the binding. […] Air‐dried filters were immersed in 3 mL of Optiphase HiSafe 3 scintillation fluid (Wallac, Turku, Finland) and radioactivity determined in a Wallac model 1410 liquid scintillation counter (Wallac, Turku, Finland). […]
as §3

[4] = target: T3, α1β2γ2 recombinant GABAA receptor (Rattus norvegicus, UniProt P62813+P63138); test: [^3H]muscimol binding kinetics, recombinant α1β2γ2 in HEK293 membranes
T3 construct: expressed in transfected cells; host or cells: HEK293 (ATCC CRL-1573), pRK5 plasmids, membranes
Text: as §1
as §2, with “Finland).” for “Finland). The maximal binding disintegrations per minute (DPM) values (at 15 min in association) for recombinant studies with 5 nM [^3H]muscimol were between 700 and 2500 DPMs of specific binding (background subtracted). In native membranes, the maximal DPM values were between 2500 and 3000 for WTs and 1300–1500 for δKOs.”
as §3

[5] = target: T4, α1β2δ recombinant GABAA receptor (Rattus norvegicus, UniProt P62813+P63138); test: [^3H]muscimol binding kinetics, recombinant α1β2δ in HEK293 membranes; details: room temperature (22°C)
T4 construct: expressed in transfected cells; host or cells: HEK293 (ATCC CRL-1573), pRK5 plasmids, membranes
Text: as §4
(§5) The binding of [^3H]muscimol (5 nM) was measured in assay buffer at 22°C in a total volume of 300 μL. […] Air‐dried filters were immersed in 3 mL of Optiphase HiSafe 3 scintillation fluid (Wallac, Turku, Finland) and radioactivity determined in a Wallac model 1410 liquid scintillation counter (Wallac, Turku, Finland).
as §3

[6] = target: T5, α1β2 recombinant GABAA receptor (Rattus norvegicus, UniProt P62813+P63138); test: [^3H]muscimol binding kinetics, recombinant α1β2 in HEK293 membranes; details: room temperature (22°C)
T5 construct: expressed in transfected cells; host or cells: HEK293 (ATCC CRL-1573), pRK5 plasmids, membranes
Text: as §4, §5, §3

[7] = design: method as in Maggi and Enna 1979; details: rat brain, ref Maggi and Enna 1979; cited from earlier work

T3 sequence (P62813 28-455): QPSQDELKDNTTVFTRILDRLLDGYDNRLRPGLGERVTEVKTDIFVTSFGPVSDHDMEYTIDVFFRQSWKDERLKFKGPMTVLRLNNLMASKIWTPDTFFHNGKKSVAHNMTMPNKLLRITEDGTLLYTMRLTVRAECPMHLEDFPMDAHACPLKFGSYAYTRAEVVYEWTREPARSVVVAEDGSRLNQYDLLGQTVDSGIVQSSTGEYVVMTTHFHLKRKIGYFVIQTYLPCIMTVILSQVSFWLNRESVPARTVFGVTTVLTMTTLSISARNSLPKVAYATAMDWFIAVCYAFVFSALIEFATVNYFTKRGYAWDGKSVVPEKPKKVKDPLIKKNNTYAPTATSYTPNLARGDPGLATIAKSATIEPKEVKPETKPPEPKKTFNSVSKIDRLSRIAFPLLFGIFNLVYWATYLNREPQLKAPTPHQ
T3 sequence (P63138 26-474): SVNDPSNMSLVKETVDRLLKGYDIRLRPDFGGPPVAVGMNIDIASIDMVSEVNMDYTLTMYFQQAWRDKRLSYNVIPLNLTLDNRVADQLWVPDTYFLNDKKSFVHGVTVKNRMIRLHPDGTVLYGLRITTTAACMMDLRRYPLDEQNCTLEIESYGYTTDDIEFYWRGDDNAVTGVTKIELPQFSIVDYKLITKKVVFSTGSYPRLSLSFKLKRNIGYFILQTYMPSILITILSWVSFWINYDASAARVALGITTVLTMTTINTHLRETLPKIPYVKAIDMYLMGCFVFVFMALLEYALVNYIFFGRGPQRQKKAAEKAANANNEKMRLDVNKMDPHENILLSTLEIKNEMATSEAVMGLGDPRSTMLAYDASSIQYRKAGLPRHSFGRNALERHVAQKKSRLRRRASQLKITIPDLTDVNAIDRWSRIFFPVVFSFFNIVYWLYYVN
T3 sequence (P18508 39-466 partner): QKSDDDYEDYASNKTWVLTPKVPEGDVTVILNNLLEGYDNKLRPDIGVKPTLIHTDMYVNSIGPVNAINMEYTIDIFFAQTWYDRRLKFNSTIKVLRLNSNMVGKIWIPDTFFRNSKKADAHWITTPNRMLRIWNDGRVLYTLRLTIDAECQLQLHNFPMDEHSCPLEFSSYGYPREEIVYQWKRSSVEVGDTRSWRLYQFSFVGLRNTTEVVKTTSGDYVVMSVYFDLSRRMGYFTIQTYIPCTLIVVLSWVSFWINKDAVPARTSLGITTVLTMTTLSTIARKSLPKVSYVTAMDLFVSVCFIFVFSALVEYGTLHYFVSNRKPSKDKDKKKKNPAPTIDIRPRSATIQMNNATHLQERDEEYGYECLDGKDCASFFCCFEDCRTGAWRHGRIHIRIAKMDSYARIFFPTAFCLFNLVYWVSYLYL
T1 sequence (P30191 20-453): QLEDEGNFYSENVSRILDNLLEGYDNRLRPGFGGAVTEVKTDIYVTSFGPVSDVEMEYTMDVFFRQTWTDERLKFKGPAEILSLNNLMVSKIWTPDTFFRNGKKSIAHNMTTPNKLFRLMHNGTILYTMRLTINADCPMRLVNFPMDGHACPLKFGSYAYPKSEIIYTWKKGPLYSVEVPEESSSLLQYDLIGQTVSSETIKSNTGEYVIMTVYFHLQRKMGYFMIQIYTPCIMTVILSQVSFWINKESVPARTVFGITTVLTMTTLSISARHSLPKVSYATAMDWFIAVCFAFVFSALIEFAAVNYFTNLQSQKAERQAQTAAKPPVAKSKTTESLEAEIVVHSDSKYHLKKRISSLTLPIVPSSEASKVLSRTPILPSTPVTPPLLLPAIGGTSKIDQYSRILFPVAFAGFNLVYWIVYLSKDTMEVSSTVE
T1 sequence (P63138 26-474): as the sequence (P63138 26-474) above
T1 sequence (P18506 25-449 partner): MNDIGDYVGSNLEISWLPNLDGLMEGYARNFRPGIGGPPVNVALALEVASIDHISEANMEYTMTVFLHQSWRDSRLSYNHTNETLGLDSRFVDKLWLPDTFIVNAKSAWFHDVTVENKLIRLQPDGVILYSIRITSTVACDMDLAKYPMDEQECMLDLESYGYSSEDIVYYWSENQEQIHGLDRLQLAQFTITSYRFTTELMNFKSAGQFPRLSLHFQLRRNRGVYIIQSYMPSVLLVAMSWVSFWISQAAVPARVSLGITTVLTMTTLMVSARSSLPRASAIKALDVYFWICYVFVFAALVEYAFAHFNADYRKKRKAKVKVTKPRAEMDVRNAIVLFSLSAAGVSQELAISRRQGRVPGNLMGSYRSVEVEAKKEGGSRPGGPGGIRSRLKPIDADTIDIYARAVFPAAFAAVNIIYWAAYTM
T4 sequence (P62813 28-455): as the sequence (P62813 28-455) above
T4 sequence (P63138 26-474): as the sequence (P63138 26-474) above
T4 sequence (P18506 25-449 partner): as the sequence (P18506 25-449 partner) above
T5 sequence (P62813 28-455): as the sequence (P62813 28-455) above
T5 sequence (P63138 26-474): as the sequence (P63138 26-474) above
T2 sequence (P30191 20-453): as the sequence (P30191 20-453) above
T2 sequence (P63138 26-474): as the sequence (P63138 26-474) above

With `NCc1cc(=O)[nH]o1` [[^3H]muscimol] [[Methylene‐^3H]muscimol] the Kd ([1]; α6β2δ in HEK293 membranes, 22°C, K D = koff/kon) was 1.3 nM, the k off ([1]; α6β2δ in HEK293 membranes, +4 °C) was 0.015 ± 0.003 ^*** min^−1 and the k off ([1]; α6β2δ in HEK293 membranes, room temperature (22°C)) was 0.13 ± 0.03 ^### min^−1. For the same molecule, the k on ([1]; α6β2δ in HEK293 membranes, room temperature (22°C), 5 nM [^3H]muscimol) was 1.0 ± 0.1 × 10^8, ^### M^−1 × min^−1, the “association rate constant kon lower when compared to γ2‐GABAARs” value ([1]; α6β2δ vs α1β2γ2 and α6β2γ2, 22°C) was 6.3–11 fold and the “[^3H]muscimol still remaining bound” value ([1]; α6β2δ, 0°C, 30 min after start of the dissociation) was 70%. The k off [2] was 1.46 ± 0.05 ^††† min^−1, the Kd ([3]; 22°C, K D = koff/kon) was 1.7 nM and the k off ([3]; room temperature (22°C)) was 0.00783 ± 0.00233 s⁻¹. The k on ([3]; room temperature (22°C), 5 nM [^3H]muscimol) was 2.8 ± 0.2 × 10^8 M^−1 × min^−1, the “dissociation of [^3H]muscimol binding during the first 15 s after pre‐incubation” value ([4]; α1β2γ2, 0°C, approximated) was “about 10%” and the Kd ([4]; α1β2γ2 in HEK293 membranes, 22°C, K D = koff/kon) was 1.6 nM. The k off ([4]; α1β2γ2 in HEK293 membranes, +4 °C) was 0.00587 ± 0.00015 s⁻¹, the k off ([4]; α1β2γ2 in HEK293 membranes, room temperature (22°C)) was 0.0297 ± 0.003 s⁻¹ and the k on ([4]; α1β2γ2 in HEK293 membranes, room temperature (22°C), 5 nM [^3H]muscimol) was 11 ± 0.6 × 10^8 M^−1 × min^−1. The k off [5] was 0.18 ± 0.03 ^### min^−1, the k off [6] was 0.49 ± 0.07 ^### min^−1 and the “fraction of peripherally injected [^3H]muscimol that entered the brain” value [7] was “around 0.02%”.
